In ChEMBL document CHEMBL5500406, “Discovery of Novel Proteolysis-Targeting Chimera Molecules as Degraders of Programmed Cell Death-Ligand 1 for Breast Cancer Therapy” (J Med Chem, 2024):
Active and inactive are the calls of the source. The rule behind the calls is not given here.

Key:
[1] = molecular target: T1, Protein cereblon/Programmed cell death 1 ligand 1 (Mus musculus) (UniProt Q9EP73+Q8C7D2); assay: PROTAC activity at CRBN/PD-L1 in mouse 4T1 cells assessed as protein degradation at 0.078 to 10 uM measured for 48 hrs by Western blot analysis; format: cell-based; conditions: dose 0.078-10 µM
[2] = molecular target: Protein cereblon/Programmed cell death 1 ligand 1 (Mus musculus, UniProt Q9EP73+Q8C7D2); assay: PROTAC activity at CRBN/PD-L1 in mouse 4T1 cells assessed as protein degradation incubated for 24 hrs by Western blot analysis; format: cell-based
[3] = molecular target: T1, Protein cereblon/Programmed cell death 1 ligand 1 (Mus musculus); assay: PROTAC activity at CRBN/PD-L1 in mouse 4T1 cells assessed as protein degradation at 0.312 uM incubated for 24 hrs in presence of MG132 by Western blot analysis; format: cell-based
4T1 [4] = assay: Antitumor activity against mouse 4T1 cells allografted in BALB/c mouse assessed as reduction in tumor weight at 30 to 60 mg/kg, ip qd for 15 days; format: functional, organism-based; conditions: dose 30-60 mg/kg, time 15.0 day
[5] = Toxicity in BALB/c mouse allografted with mouse 4T1 cells assessed as pathological change in liver at 60 mg/kg, ip qd for 15 days in presence of Paclitaxel by H and E staining based analysis; format: organism-based; conditions: in vivo, 360 h, time 15 day
[6] = molecular target: Programmed cell death 1 ligand 1 (Mus musculus, UniProt Q9EP73); assay: Binding affinity to mouse PD-L1 assessed as dissociation constant incubated for 15 mins by MST assay
[7] = Toxicity in BALB/c mouse allografted with mouse 4T1 cells assessed as pathological change in kidney at 30 to 60 mg/kg, ip qd for 15 days by H and E staining based analysis; format: organism-based; conditions: in vivo, 360 h, dose 30-60 mg/kg, time 15 day
4T1 [8] = assay: Antitumor activity against mouse 4T1 cells assessed as increase in cell mortality rate at 0.312 uM pretreated with compound followed by co-culture of CD3/CD28-activated PBMC cells measured after 24 hrs by LDH assay relative to control; format: functional
4T1 [9] = assay: Antitumor activity against mouse 4T1 cells allografted in BALB/c mouse assessed as increase in CD4+ T cells infiltration in tumor at 30 to 60 mg/kg, ip qd for 15 days by IHC analysis; format: functional, organism-based; conditions: dose 30-60 mg/kg, time 15.0 day
[10] = […] bioavailability in Sprague-Dawley rat at 30 mg/kg, ip measured for 24 hrs by LC-MS/MS analysis; format: ADME, organism-based; conditions: in vivo
[11] = molecular target: Protein cereblon/Programmed cell death 1 ligand 1 (Homo sapiens) (UniProt Q9NZQ7+Q96SW2); assay: PROTAC activity at CRBN/PD-L1 in human MDA-MB-231 cells assessed as protein degradation at >=5 uM measured for 24 hrs by Western blot analysis; format: cell-based
[12] = molecular target: T1, Protein cereblon/Programmed cell death 1 ligand 1 (Mus musculus); assay: PROTAC activity at CRBN/PD-L1 in mouse 4T1 cells assessed as reduction in green fluorescence in cell membrane at 0.312 uM incubated for 24 hrs by immunofluorescence analysis; format: cell membranes
[13] = Toxicity in BALB/c mouse allografted with mouse 4T1 cells assessed as pathological change in liver at 30 to 60 mg/kg, ip qd for 15 days by H and E staining based analysis; format: organism-based; conditions: in vivo, 360 h, dose 30-60 mg/kg, time 15 day
[14] = Toxicity in BALB/c mouse allografted with mouse 4T1 cells assessed as abnormality in biochemical analysis at 60 mg/kg, ip qd for 15 days in presence of Paclitaxel; format: organism-based; conditions: in vivo, 360 h, time 15 day
[15] = Toxicity in BALB/c mouse allografted with mouse 4T1 cells assessed as pathological change in spleen at 30 to 60 mg/kg, ip qd for 15 days by H and E staining based analysis; format: organism-based; conditions: in vivo, 360 h, dose 30-60 mg/kg, time 15 day
4T1 [16] = assay: Antitumor activity against mouse 4T1 cells allografted in BALB/c mouse assessed as reduction in tumor volume at 30 to 60 mg/kg, ip qd for 15 days; format: functional, organism-based; conditions: dose 30-60 mg/kg, time 15.0 day
[17] = molecular target: T1, Protein cereblon/Programmed cell death 1 ligand 1 (Mus musculus); assay: PROTAC activity at CRBN/PD-L1 in mouse 4T1 cells assessed as protein degradation at 0.312 uM incubated for 24 hrs in presence of siCRBN by Western blot analysis; format: cell-based
4T1 [18] = assay: Antitumor activity against mouse 4T1 cells allografted in BALB/c mouse assessed as increase in IFN-gamma mRNA level in tumor at 60 mg/kg, ip qd for 15 days by qRT-PCR analysis; format: functional, organism-based; conditions: time 15.0 day
[19] = Toxicity in BALB/c mouse allografted with mouse 4T1 cells assessed as pathological change in kidney at 60 mg/kg, ip qd for 15 days in presence of Paclitaxel by H and E staining based analysis; format: organism-based; conditions: in vivo, 360 h, time 15 day
[20] = Toxicity in BALB/c mouse allografted with mouse 4T1 cells assessed as body weight loss at 30 to 60 mg/kg, ip qd for 15 days; format: organism-based; conditions: in vivo, 360 h, dose 30-60 mg/kg, time 15 day
4T1 [21] = assay: Antitumor activity against mouse 4T1 cells assessed as increase in cell mortality rate at 0.078 uM pretreated with compound followed by co-culture of CD3/CD28-activated PBMC cells measured after 24 hrs by LDH assay relative to control; format: functional
4T1 [22] = assay: Antitumor activity against mouse 4T1 cells assessed as decrease in cell viability at 0.078 to 0.312 uM incubated for 24 hrs by LDH assay; format: functional, cell-based; conditions: dose 0.078-0.312 µM
[23] = Clearance in Sprague-Dawley rat at 3 mg/kg, iv measured for 24 hrs by LC-MS/MS analysis; format: ADME, organism-based; conditions: in vivo
[24] = Toxicity in BALB/c mouse allografted with mouse 4T1 cells assessed as pathological change in lung at 30 to 60 mg/kg, ip qd for 15 days by H and E staining based analysis; format: organism-based; conditions: in vivo, 360 h, dose 30-60 mg/kg, time 15 day
4T1 [25] = assay: Antitumor activity against mouse 4T1 cells assessed as inhibition of cell viability incubated for 48 hrs by MTT assay; format: functional, cell-based; conditions: 4T1, 48 h
[26] = Toxicity in BALB/c mouse allografted with mouse 4T1 cells assessed as body weight loss at 60 mg/kg, ip qd for 15 days in presence of Paclitaxel; format: organism-based; conditions: in vivo, 360 h, time 15 day
Protein cereblon = molecular target: T2, Protein cereblon (Mus musculus, UniProt Q8C7D2); assay: Binding affinity to mouse CRBN assessed as dissociation constant incubated for 15 mins by MST assay
T2 sequence (Q8C7D2 whole entry): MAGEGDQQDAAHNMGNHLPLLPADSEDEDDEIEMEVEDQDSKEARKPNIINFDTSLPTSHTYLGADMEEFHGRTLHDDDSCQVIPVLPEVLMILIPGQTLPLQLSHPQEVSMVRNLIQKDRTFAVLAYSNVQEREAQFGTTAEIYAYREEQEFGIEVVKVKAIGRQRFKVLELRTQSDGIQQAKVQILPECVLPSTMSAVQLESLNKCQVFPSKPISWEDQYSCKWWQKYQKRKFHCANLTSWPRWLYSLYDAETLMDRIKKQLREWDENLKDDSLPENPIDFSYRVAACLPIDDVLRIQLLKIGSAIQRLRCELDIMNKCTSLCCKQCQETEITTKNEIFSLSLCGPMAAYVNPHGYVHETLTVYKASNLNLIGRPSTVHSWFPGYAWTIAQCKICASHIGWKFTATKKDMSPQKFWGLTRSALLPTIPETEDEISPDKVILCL

[27] = Cytotoxicity against BALB/c mouse PBMC cells at <=0.312 uM incubated for 48 hrs by MTT assay; format: toxicity, cell-based

T1 sequence (Q9EP73 19-290 limits assumed, one chain of several): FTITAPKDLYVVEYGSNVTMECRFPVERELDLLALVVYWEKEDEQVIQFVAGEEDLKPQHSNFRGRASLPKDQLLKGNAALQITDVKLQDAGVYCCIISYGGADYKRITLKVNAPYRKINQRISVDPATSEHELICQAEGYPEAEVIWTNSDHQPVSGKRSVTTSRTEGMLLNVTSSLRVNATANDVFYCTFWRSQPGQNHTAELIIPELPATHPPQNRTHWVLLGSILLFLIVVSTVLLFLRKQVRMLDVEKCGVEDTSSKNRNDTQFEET
Protein cereblon/Programmed cell death 1 ligand 1, sequence (Q9EP73 whole entry, one chain of several): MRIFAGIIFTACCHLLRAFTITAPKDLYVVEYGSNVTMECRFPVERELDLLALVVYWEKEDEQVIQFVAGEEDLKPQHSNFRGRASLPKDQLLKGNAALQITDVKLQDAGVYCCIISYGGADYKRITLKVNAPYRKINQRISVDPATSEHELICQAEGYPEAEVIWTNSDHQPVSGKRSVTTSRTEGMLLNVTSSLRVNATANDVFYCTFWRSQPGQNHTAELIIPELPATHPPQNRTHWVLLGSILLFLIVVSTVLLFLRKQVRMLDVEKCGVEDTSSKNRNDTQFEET
Programmed cell death 1 ligand 1, sequence (Q9EP73 whole entry): as the sequence (Q9EP73 whole entry, one chain of several) above
Protein cereblon/Programmed cell death 1 ligand 1 (Homo sapiens), sequence (Q96SW2 whole entry, looked up): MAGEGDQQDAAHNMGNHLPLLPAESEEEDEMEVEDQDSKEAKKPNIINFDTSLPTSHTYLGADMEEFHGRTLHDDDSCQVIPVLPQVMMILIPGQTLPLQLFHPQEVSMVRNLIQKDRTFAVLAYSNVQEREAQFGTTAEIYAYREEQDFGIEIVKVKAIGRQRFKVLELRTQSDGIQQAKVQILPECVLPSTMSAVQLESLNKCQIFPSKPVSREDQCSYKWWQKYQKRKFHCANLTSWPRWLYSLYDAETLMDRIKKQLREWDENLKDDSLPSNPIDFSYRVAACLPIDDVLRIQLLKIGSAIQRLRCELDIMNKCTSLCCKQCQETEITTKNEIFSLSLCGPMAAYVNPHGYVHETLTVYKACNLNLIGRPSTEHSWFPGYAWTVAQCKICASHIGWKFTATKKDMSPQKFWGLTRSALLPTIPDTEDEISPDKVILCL
Protein cereblon/Programmed cell death 1 ligand 1 (Homo sapiens), sequence (Q9NZQ7 whole entry, looked up): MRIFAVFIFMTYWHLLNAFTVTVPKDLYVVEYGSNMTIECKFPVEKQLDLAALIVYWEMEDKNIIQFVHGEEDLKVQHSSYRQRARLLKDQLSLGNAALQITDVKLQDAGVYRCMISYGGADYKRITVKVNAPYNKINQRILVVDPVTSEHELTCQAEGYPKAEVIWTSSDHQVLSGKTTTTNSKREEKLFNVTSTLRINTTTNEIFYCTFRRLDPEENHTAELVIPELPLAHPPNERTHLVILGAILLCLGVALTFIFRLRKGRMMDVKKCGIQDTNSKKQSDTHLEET

COc1nc(OCc2cccc(-c3ccccc3)c2C)ccc1CNCCNC(=O)CCCCCCCCNC(=O)COc1ccc(C2CCC(=O)NC2=O)cc1 (stereo not drawn)
Activity [1]: Active
DC50 [2]: 0.609 µM
Activity [3]: inactive
Activity (4T1 [4]): Active
Activity [5]: Non-Toxic
Kd [6]: 59.2 µM
Activity [7]: Non-Toxic
Activity (4T1 [8]): 72.3%
Activity (4T1 [9]): Active
bioavailability [10]: 71.2%
Activity [11]: Active
Activity [12]: Active
Activity [13]: Non-Toxic
Activity [14]: Non-Toxic
Activity [15]: Non-Toxic
Activity (4T1 [16]): Active
Activity [17]: inactive
Activity (4T1 [18]): Active
Activity [19]: Non-Toxic
Activity [20]: Non-Toxic
Activity (4T1 [21]): 31.8%
Activity (4T1 [22]): Active
clearance [23]: 471 mL/min/kg
Activity [24]: Non-Toxic
IC50 (4T1 [25]): 23.1 µM
Activity [26]: Non-Toxic
Kd (Protein cereblon): 132 µM
Activity [27]: Non-Toxic
